Reference: ChEMBL document CHEMBL6103537 (J Med Chem, 2025)
The source made the active and inactive calls. No cut-off for these calls is given here.

Tests used:
[1] = molecular target: T1, Signal transducer and activator of transcription 5A (Homo sapiens, UniProt P42229); experiment: Binding affinity to STAT5A (unknown origin) assessed as inhibition constant incubated for 1 hr by fluorescence polarization assay
T1 sequence (P42229 whole entry): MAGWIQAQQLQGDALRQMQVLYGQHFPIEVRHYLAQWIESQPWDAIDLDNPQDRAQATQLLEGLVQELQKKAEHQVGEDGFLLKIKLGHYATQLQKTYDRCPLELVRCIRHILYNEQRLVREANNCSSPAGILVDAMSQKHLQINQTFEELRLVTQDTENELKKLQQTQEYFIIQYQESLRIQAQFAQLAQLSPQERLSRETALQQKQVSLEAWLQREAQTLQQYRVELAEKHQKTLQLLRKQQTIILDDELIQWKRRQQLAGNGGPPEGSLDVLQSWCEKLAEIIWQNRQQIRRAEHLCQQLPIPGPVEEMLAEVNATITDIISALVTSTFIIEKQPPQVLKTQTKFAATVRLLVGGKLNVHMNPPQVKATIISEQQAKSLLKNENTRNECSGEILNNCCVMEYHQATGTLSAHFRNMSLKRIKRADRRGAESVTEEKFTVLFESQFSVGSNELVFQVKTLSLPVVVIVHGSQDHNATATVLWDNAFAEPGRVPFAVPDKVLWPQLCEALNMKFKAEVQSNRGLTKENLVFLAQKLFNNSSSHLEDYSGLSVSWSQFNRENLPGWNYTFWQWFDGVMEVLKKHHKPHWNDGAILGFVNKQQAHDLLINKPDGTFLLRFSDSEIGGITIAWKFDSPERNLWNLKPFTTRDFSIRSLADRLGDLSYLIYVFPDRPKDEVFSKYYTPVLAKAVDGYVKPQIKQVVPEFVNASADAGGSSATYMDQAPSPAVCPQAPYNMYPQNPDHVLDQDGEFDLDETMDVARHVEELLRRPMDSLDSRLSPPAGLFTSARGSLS

[2] = molecular target: T2, Signal transducer and activator of transcription 6 (Homo sapiens, UniProt P42226); experiment: Binding affinity to N-terminal his6-tgged STAT6 (unknown origin) (113 to 658 residues) assessed as inhibition constant incubated for 1 hr by fluorescence polarization assay
T2 sequence (P42226 whole entry): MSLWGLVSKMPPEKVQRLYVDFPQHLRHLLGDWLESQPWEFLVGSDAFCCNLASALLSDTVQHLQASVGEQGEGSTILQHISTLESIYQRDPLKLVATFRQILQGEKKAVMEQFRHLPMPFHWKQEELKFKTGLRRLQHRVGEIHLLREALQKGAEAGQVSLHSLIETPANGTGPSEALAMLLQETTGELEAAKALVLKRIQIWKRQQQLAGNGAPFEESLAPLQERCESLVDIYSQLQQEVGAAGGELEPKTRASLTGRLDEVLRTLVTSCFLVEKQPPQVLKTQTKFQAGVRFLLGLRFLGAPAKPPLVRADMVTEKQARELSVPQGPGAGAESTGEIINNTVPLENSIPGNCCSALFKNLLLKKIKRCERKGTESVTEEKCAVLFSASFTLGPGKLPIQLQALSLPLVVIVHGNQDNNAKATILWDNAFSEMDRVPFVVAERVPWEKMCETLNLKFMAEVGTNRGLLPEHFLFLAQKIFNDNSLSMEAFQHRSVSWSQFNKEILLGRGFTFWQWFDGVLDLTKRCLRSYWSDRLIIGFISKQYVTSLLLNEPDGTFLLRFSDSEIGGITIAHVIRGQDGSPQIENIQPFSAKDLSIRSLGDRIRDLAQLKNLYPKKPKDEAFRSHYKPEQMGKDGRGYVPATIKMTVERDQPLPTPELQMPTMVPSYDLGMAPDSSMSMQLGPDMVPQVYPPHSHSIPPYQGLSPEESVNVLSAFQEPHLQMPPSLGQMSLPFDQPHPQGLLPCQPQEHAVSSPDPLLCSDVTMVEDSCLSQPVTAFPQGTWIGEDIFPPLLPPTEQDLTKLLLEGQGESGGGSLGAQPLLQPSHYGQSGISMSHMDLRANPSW

[3] = molecular target: T3, Signal transducer and activator of transcription 5B (Homo sapiens, UniProt P51692); experiment: Binding affinity to STAT5B (unknown origin) assessed as inhibition constant incubated for 1 hr by fluorescence polarization assay
T3 sequence (P51692 whole entry): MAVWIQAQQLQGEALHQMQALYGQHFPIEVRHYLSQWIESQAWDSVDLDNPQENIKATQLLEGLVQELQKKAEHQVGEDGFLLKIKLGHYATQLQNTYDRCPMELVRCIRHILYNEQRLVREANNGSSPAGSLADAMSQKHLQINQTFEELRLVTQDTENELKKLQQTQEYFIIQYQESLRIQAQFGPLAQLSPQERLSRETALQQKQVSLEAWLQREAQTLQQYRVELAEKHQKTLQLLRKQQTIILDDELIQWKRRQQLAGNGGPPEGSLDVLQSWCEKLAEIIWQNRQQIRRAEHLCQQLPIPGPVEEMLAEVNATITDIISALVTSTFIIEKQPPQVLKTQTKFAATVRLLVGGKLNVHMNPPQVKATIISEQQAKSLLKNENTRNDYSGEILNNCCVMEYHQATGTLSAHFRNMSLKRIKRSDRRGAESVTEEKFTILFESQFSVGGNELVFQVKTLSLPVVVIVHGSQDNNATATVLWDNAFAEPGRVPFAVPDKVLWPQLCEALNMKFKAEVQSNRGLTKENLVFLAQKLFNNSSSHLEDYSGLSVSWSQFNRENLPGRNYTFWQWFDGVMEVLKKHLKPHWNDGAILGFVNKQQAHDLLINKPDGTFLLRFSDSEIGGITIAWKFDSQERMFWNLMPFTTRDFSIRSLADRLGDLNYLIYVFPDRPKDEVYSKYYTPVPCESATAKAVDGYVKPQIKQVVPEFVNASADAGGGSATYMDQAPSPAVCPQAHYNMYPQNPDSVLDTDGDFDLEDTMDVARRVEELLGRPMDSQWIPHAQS

[4] = molecular target: T4, Protein cereblon/Signal transducer and activator of transcription 6 (Homo sapiens, UniProt P42226+Q96SW2); experiment: PROTAC activity at STAT6/CRBN in human MV4-11 cells assessed as reduction in STAT6 level at 0.5 uM measured upto 1200 mins by HiBiT bioluminescence assay; type: cell-based
[5] = molecular target: T4, Protein cereblon/Signal transducer and activator of transcription 6; experiment: PROTAC activity at STAT6 at Y641 residue/CRBN in human L-1236 cells assessed as reduction in STAT6 level at 10 uM incubated for 24 hrs by Western blot analysis; type: cell-based
[6] = molecular target: Protein cereblon/Signal transducer and activator of transcription 3 (Homo sapiens) (UniProt P40763+Q96SW2); experiment: PROTAC activity at STAT3/CRBN in human PBMC cells assessed as reduction in STAT3 level at 10 uM incubated for 18 hrs by Western blot analysis relative to control; type: cell-based
[7] = molecular target: Protein cereblon/Signal transducer and activator of transcription 2 (Homo sapiens) (UniProt Q96SW2+P52630); experiment: PROTAC activity at STAT2/CRBN in human PBMC cells assessed as reduction in STAT2 level at 10 uM incubated for 18 hrs by Western blot analysis relative to control; type: cell-based
[8] = molecular target: T4, Protein cereblon/Signal transducer and activator of transcription 6; experiment: PROTAC activity at STAT6/CRBN in human L-1236 cells assessed as reduction in STAT6 level at 10 uM incubated for 24 hrs by Western blot analysis; type: cell-based
[9] = molecular target: Protein cereblon/Signal transducer and activator of transcription 5A/Signal transducer and activator of transcription 5B (Homo sapiens) (UniProt P42229+P51692+Q96SW2); experiment: PROTAC activity at STAT5/CRBN in human PBMC cells assessed as reduction in STAT5 level at 10 uM incubated for 18 hrs by Western blot analysis relative to control; type: cell-based
[10] = molecular target: Protein cereblon/Signal transducer and activator of transcription 1-alpha/beta (Homo sapiens) (UniProt P42224+Q96SW2); experiment: PROTAC activity at STAT1/CRBN in human PBMC cells assessed as reduction in STAT1 level at 10 uM incubated for 18 hrs by Western blot analysis relative to control; type: cell-based
[11] = molecular target: T4, Protein cereblon/Signal transducer and activator of transcription 6; experiment: PROTAC activity at STAT6/CRBN in human MV4-11 cells assessed as reduction in STAT6 level at upto 10 uM incubated for 12 hrs by Western blot analysis; type: cell-based
[12] = molecular target: Protein cereblon/Signal transducer and activator of transcription 4 (Homo sapiens) (UniProt Q96SW2+Q14765); experiment: PROTAC activity at STAT4/CRBN in human PBMC cells assessed as reduction in STAT4 level at 10 uM incubated for 18 hrs by Western blot analysis relative to control; type: cell-based

SMILES | Ki [1] | Ki [2] | Ki [3] | further results
CC(C)(C)[C@H](NC(=O)c1cc2cc(C(F)(F)P(=O)(O)O)ccc2s1)C(=O)N1CCC[C@H]1C(=O)N1CCOC(c2ccc(F)cc2)C1 (stereo partly specified) | > 5000 nM | 220 nM | 4400 nM | –
NS(=O)(=O)OC[C@@H]1C[C@@H](n2ccc3c(N[C@H]4CCc5ccccc54)ncnc32)C[C@@H]1O | – | – | – | Activity [4]: No effect
CC(C)(C)[C@H](NC(=O)c1cc2cc(C(F)(F)P(=O)(O)O)ccc2s1)C(=O)N1CCC[C@H]1C(=O)N1CCOC(c2ccc(F)cc2F)C1 (stereo partly specified) | > 5000 nM | 420 nM | > 5000 nM | –
CC(C)(C)[C@H](NC(=O)c1cc2cc(C(F)(F)P(=O)(O)O)ccc2s1)C(=O)N1CCC[C@H]1C(=O)N1CCOC(c2ccc3ccccc3c2)C1 (stereo partly specified) | 1400 nM | 83 nM | 800 nM | –
CN1C(=O)CCC(N2Cc3c(C#CCCCCCO[C@H]4C[C@@H](C(=O)N5CCO[C@H](c6ccccc6)C5)N(C(=O)[C@@H](NC(=O)c5cc6cc(C(F)(F)P(=O)(O)O)ccc6s5)C(C)(C)C)C4)cccc3C2=O)C1=O (stereo partly specified) | – | – | – | Activity [5]: No effect; Activity [6]: No effect; Activity [7]: No effect; Activity [8]: No effect; Activity [9]: No effect; Activity [10]: No effect; Activity [11]: inactive; Activity [12]: No effect
CC(C)(C)[C@H](NC(=O)c1cc2cc(C(F)(F)P(=O)(O)O)ccc2s1)C(=O)N1CCC[C@H]1C(=O)N1CCOC(C2CCCCC2)C1 (stereo partly specified) | 1800 nM | 500 nM | 200 nM | –

Further lines, with some results ahead:

Ki [1] | Ki [2] | Ki [3] | SMILES | further results
> 5000 nM | 1300 nM | > 5000 nM | CC(C)(C)[C@H](NC(=O)c1cc2cc(C(F)(F)P(=O)(O)O)ccc2s1)C(=O)N1CCC[C@H]1C(=O)N1CCOC(Cc2ccccc2)C1 (stereo partly specified) | –
> 5000 nM | 310 nM | > 5000 nM | CC(C)(C)[C@H](NC(=O)c1cc2cc(C(F)(F)P(=O)(O)O)ccc2s1)C(=O)N1CCC[C@H]1C(=O)N1CCOC(c2cccnc2)C1 (stereo partly specified) | –
> 5000 nM | 110 nM | 2400 nM | CC(C)(C)[C@H](NC(=O)c1cc2cc(C(F)(F)P(=O)(O)O)ccc2s1)C(=O)N1CCC[C@H]1C(=O)N1CCOC(c2ccccc2F)C1 (stereo partly specified) | –
> 5000 nM | 1100 nM | > 5000 nM | CC(C)(C)[C@H](NC(=O)c1cc2cc(C(F)(F)P(=O)(O)O)ccc2s1)C(=O)N1CCC[C@H]1C(=O)N1CCOC(c2ccncc2)C1 (stereo partly specified) | –
1400 nM | 80 nM | 1800 nM | CC(C)(C)[C@H](NC(=O)c1cc2cc(C(F)(F)P(=O)(O)O)ccc2s1)C(=O)N1CCC[C@H]1C(=O)N1CCSC(c2ccccc2)C1 (stereo partly specified) | –
